Test results as given in patent publication US8623879B2, “1-heterocyclyl-1,5-dihydro-pyrazolo[3,4-D] pyrimidin-4-one derivates and their use as PDE9A modulators” (Boehringer Ingelheim International GmbH, priority 2008, dated 2014).

Biological target: T1, human PDE9A2 (Homo sapiens, UniProt O76083)
T1 construct: made in house; host or cells: Sf9 insect cells (infected); crude lysate used as enzyme source
Assay: PDE9A2 enzymatic activity assay (scintillation proximity assay, SPA)
Format: biochemical
Details: for % inhibition of PDE9A2 (at 10 micromolar concentration) / inhibition at 10 µM: values above 100% adjusted to 100%; for IC50: reported only as range 1-100 or 101-1200 nanomolar, specific value lies within range, read-out: IC50 within range [nanomolar (nM)]; for inhibition at 10 µM: read-out: % inhibition of PDE9A2 (at 10 micromolar concentration), 10 micromolar concentration

T1 sequence (O76083 1-533 isoform O76083-2): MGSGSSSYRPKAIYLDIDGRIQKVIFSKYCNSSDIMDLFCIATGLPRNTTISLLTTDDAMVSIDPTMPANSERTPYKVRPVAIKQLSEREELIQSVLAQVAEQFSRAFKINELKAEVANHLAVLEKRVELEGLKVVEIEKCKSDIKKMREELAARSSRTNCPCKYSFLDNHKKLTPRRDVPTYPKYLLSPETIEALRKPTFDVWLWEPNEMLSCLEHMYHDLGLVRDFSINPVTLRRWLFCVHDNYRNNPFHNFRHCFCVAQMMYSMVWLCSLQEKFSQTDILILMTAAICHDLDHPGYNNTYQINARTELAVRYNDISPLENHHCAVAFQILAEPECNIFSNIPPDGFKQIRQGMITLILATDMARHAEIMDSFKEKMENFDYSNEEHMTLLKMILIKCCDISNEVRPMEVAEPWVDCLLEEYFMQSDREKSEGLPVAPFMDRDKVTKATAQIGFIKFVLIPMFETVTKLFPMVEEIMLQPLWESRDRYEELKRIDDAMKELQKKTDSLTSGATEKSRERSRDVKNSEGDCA

Compound | % inhibition of PDE9A2 (at 10 micromolar concentration) | IC50 | inhibition at 10 µM
CC1CC(n2ncc3c(=O)[nH]c(CC4CCCC4)nc32)CCO1 (racemic) [Example 117] | 97% | 1 to 100 nM | 
CC(C)Oc1ccccc1Cc1nc2c(cnn2C2CCOCC2)c(=O)[nH]1 [Example 54] |  | 1 to 100 nM | 97%
O=c1[nH]c(Cc2ccccc2C(F)(F)F)nc2c1cnn2C1CCOCC1 [Example 45] |  | 1 to 100 nM | 98%
CCOc1ccccc1Cc1nc2c(cnn2C2CCOC2)c(=O)[nH]1 (racemic) [Example 82] |  | 1 to 100 nM | 100%
O=c1[nH]c(CCC2CCCC2)nc2c1cnn2C1CCOCC1 [Example 9] |  | 1 to 100 nM | 99%
CC(C)(C)OC(=O)N1CCC(n2ncc3c(=O)[nH]c(Cc4ccccc4)nc32)C1 (racemic) [Example 15] |  | 101 to 1200 nM | 92%
O=c1[nH]c(Cc2ncccn2)nc2c1cnn2C1CCOCC1 [Example 66] |  | 101 to 1200 nM | 91%
Cc1cccn(-c2ccccc2Cc2nc3c(cnn3C3CCOCC3)c(=O)[nH]2)c1=O [Example 40-7] |  | 101 to 1200 nM | 95%
CC(=O)N1CCC(Oc2ccccc2Cc2nc3c(cnn3C3CCOCC3)c(=O)[nH]2)CC1 [Example 68] |  | 1 to 100 nM | 97%
COc1ccc(C2CCCCC2Cc2nc3c(cnn3C3CCOCC3)c(=O)[nH]2)cn1 (racemic) [Example 40-4] |  | 101 to 1200 nM | 92%
O=c1[nH]c(Cc2ccccn2)nc2c1cnn2C1CCOCC1 [Example 51] |  | 1 to 100 nM | 96%
O=c1[nH]c(Cc2ccccc2OCC2CC2)nc2c1cnn2C1CCOCC1 [Example 55] |  | 1 to 100 nM | 97%
O=c1[nH]c(Cc2ccccn2)nc2c1cnn2C1CCOC1 (single isomer, unassigned) [Example 132-7] |  | 1 to 100 nM | 94%
O=c1[nH]c(CC2CCC2)nc2c1cnn2C1CCOC1 (single isomer, unassigned) [Example 132-6] |  | 1 to 100 nM | 99%
COc1ccccc1CCc1nc2c(cnn2C2CCOCC2)c(=O)[nH]1 [Example 40-3] |  | 101 to 1200 nM | 100%
O=c1[nH]c(Cc2cccc(C(F)(F)F)c2)nc2c1cnn2C1CCCOC1 (racemic) [Example 129] |  | 1 to 100 nM | 99%
COc1cccnc1Cc1nc2c(cnn2C2CCCOC2)c(=O)[nH]1 (racemic) [Example 122] |  | 101 to 1200 nM | 85%
Cc1cccnc1Cc1nc2c(cnn2C2CCOC2)c(=O)[nH]1 (racemic) [Example 87] |  | 101 to 1200 nM | 86%
O=c1[nH]c(Cc2ccccc2Cl)nc2c1cnn2C1CCOCC1 [Example 4] |  | 1 to 100 nM | 98%
N#Cc1ccccc1Cc1nc2c(cnn2C2CCCOC2)c(=O)[nH]1 (racemic) [Example 126] |  | 1 to 100 nM | 98%
CCOc1ccccc1Cc1nc2c(cnn2C2CCOCC2)c(=O)[nH]1 [Example 52] |  | 1 to 100 nM | 100%
O=c1[nH]c(Cc2ccc(F)c(Cl)c2)nc2c1cnn2C1CCCOC1 (racemic) [Example 102] |  | 1 to 100 nM | 100%

Compound | % inhibition of PDE9A2 (at 10 micromolar concentration) | IC50 | inhibition at 10 µM
CCC(Cc1nc2c(cnn2C2CCOCC2)c(=O)[nH]1)C(F)(F)F (single isomer, unassigned) [Example 62] | 95% | 1 to 100 nM | 
CN1CCC(n2ncc3c(=O)[nH]c(Cc4ccccc4OC(F)(F)F)nc32)CC1 [Example 150] |  | 101 to 1200 nM | 90%
O=c1[nH]c(Cc2ccccc2C(F)(F)F)nc2c1cnn2C1CCCCO1 (racemic) [Example 147-1] |  | 101 to 1200 nM | 86%
CC1CC(n2ncc3c(=O)[nH]c(CC4CCCC4)nc32)CCO1 (racemic) [Example 112] |  | 1 to 100 nM | 97%
Cc1ccccc1Cc1nc2c(cnn2C2CCOCC2)c(=O)[nH]1 [Example 2] |  | 1 to 100 nM | 99%
O=c1[nH]c(CC2CC2)nc2c1cnn2C1CCCOC1 (racemic) [Example 99] |  | 1 to 100 nM | 96%
O=c1[nH]c(C(F)(F)c2ccccc2)nc2c1cnn2C1CCOCC1 [Example 13] |  | 101 to 1200 nM | 90%
Cc1cccnc1Cc1nc2c(cnn2C2CCOCC2)c(=O)[nH]1 [Example 56] |  | 1 to 100 nM | 95%
N#Cc1ccccc1Cc1nc2c(cnn2C2CCOC2)c(=O)[nH]1 (racemic) [Example 88] |  | 1 to 100 nM | 96%
O=c1[nH]c(Cc2ccccc2OC2CCOCC2)nc2c1cnn2C1CCOCC1 [Example 60] |  | 1 to 100 nM | 97%
CC1(C)CC(n2ncc3c(=O)[nH]c(CC4CCCC4)nc32)CCO1 (racemic) [Example 104] |  | 101 to 1200 nM | 95%
CCC(Cc1nc2c(cnn2C2CCOCC2)c(=O)[nH]1)C(F)(F)F (racemic) [Example 48] |  | 1 to 100 nM | 96%
O=c1[nH]c(Cc2ccc(F)cc2Cl)nc2c1cnn2C1CCOCC1 [Example 10] |  | 1 to 100 nM | 98%
CC(C)Cc1nc2c(cnn2C2CCOC2)c(=O)[nH]1 (racemic) [Example 74] |  | 1 to 100 nM | 95%
COc1cccc(Cl)c1Cc1nc2c(cnn2C2CCOCC2)c(=O)[nH]1 [Example 33] |  | 1 to 100 nM | 97%
CC(C)(C)OC(=O)N1CCCC(n2ncc3c(=O)[nH]c(Cc4ccccn4)nc32)C1 (racemic) [Example 20] |  | 1 to 100 nM | 98%
CC(C)Cc1nc2c(cnn2C2CCOC2)c(=O)[nH]1 (single isomer, unassigned) [Example 132-4] | 98% | 1 to 100 nM | 
O=c1[nH]c(Cc2ccccc2OC(F)(F)F)nc2c1cnn2C1CCCOC1 (racemic) [Example 91] |  | 1 to 100 nM | 99%
COc1ccc(Cc2nc3c(cnn3C3CCOCC3)c(=O)[nH]2)cc1F [Example 27] |  | 1 to 100 nM | 99%
O=c1[nH]c(Cc2ccccc2O[C@H]2CCOC2)nc2c1cnn2C1CCOCC1 [Example 58] |  | 1 to 100 nM | 96%
O=c1[nH]c(Cc2ncccc2C(F)(F)F)nc2c1cnn2C1CCOCC1 [Example 63] |  | 101 to 1200 nM | 92%

The next lines start with the values.

% inhibition of PDE9A2 (at 10 micromolar concentration) | IC50 | inhibition at 10 µM | Compound
 | 1 to 100 nM | 100% | O=C1CC(n2ncc3c(=O)[nH]c(CC4CCCC4)nc32)CCO1 (centres unmarked) [Example 233]
 | 101 to 1200 nM | 88% | O=C(c1ccccc1)N1CCCC(n2ncc3c(=O)[nH]c(Cc4ccccn4)nc32)C1 (racemic) [Example 175]
 | 101 to 1200 nM | 98% | CCc1cc(OC)ccc1Cc1nc2c(cnn2C2CCOCC2)c(=O)[nH]1 [Example 235]
 | 1 to 100 nM | 96% | CC(=O)N1CCCC(n2ncc3c(=O)[nH]c(Cc4ccccc4OC(F)(F)F)nc32)C1 (racemic) [Example 188]
 | 101 to 1200 nM | 75% | COc1ccccc1Cc1nc2c(cnn2C2CCN(C(=O)c3ccccc3)C2)c(=O)[nH]1 (racemic) [Example 170]
 | 101 to 1200 nM | 82% | O=c1[nH]c(CC2CCC2)nc2c1cnn2C1CCCNC1 (racemic) [Example 206]
 | 101 to 1200 nM | 84% | O=c1[nH]c(Cc2ccccc2OC(F)(F)F)nc2c1cnn2C1CCNCC1 [Example 203]
 | 101 to 1200 nM | 99% | CC(=O)N1CCC(n2ncc3c(=O)[nH]c(CC4CCCC4)nc32)C1 (racemic) [Example 165]
 | 101 to 1200 nM | 92% | COc1ccccc1Cc1nc2c(cnn2C2CCN(C)C2)c(=O)[nH]1 (racemic) [Example 212]
 | 101 to 1200 nM | 100% | O=c1[nH]c(CC2CCC2)nc2c1cnn2C1CCCN(CC(F)(F)F)C1 (racemic) [Example 192]
 | 1 to 100 nM | 96% | O=C(c1ccccc1)N1CCCC(n2ncc3c(=O)[nH]c(CC4CCC4)nc32)C1 (racemic) [Example 181]
 | 101 to 1200 nM | 86% | O=C(c1ccccc1)N1CCC(n2ncc3c(=O)[nH]c(Cc4ccccc4OC(F)(F)F)nc32)C1 (racemic) [Example 169]
 | 1 to 100 nM | 97% | O=C(c1ccccc1)N1CCCC(n2ncc3c(=O)[nH]c(Cc4ccccc4F)nc32)C1 (racemic) [Example 186]
 | 101 to 1200 nM | 93% | CC(=O)N1CCC(n2ncc3c(=O)[nH]c(Cc4ccccc4)nc32)CC1 [Example 152]
 | 101 to 1200 nM | 92% | CCOc1ccccc1Cc1nc2c(cnn2C2CCCN(C(=O)c3ccccc3)C2)c(=O)[nH]1 (racemic) [Example 178]
 | 1 to 100 nM | 99% | CN1CCC(n2ncc3c(=O)[nH]c(Cc4ccccc4OC(F)(F)F)nc32)C1 (racemic) [Example 211]
 | 101 to 1200 nM | 92% | O=C(c1ccccc1)N1CCC(n2ncc3c(=O)[nH]c(Cc4ccccc4)nc32)C1 (racemic) [Example 166]
 | 101 to 1200 nM | 82% | CN(C)C(=O)N1CCC(n2ncc3c(=O)[nH]c(Cc4ccccc4)nc32)C1 (racemic) [Example 190]
 | 1 to 100 nM | 98% | CN1CCC(n2ncc3c(=O)[nH]c(CC4CCC4)nc32)C1 (racemic) [Example 214]
 | 101 to 1200 nM | 93% | O=c1[nH]c(CC2CC2)nc2c1cnn2C1CC[S+]([O-])CC1 (centres unmarked) [Example 236]
 | 101 to 1200 nM | 91% | O=c1[nH]c(CC2CCCC2)nc2c1cnn2C1CCCNC1 (racemic) [Example 196]
